Reference: PubChem BioAssay (NCI)
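Five compound concentrations were applied to cells in 96-well plates for 48 hours; endpoints were derived by simple linear interpolation of the resulting dose-response curve. Here, GI50 denotes the concentration required for 50% inhibition of growth. TGI marks complete inhibition of growth.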

Tests used:
Assay in all cases: inhibition of tumour cell growth, NCI panel, 48 h
[1] = system: SR leukemia
[2] = system: NCI-H522 lung
[3] = system: OVCAR-4 ovarian
[4] = system: UACC-257 melanoma
[5] = system: T-47D breast
[6] = system: SNB-19 CNS
[7] = system: KM12 colon
[8] = system: SF-295 CNS
[9] = system: SF-539 CNS
[10] = system: LOX IMVI melanoma
[11] = system: SK-OV-3 ovarian
[12] = system: SK-MEL-5 melanoma
[13] = system: DU-145 prostate
[14] = system: SNB-75 CNS
[15] = system: SW-620 colon
[16] = system: CCRF-CEM leukemia
[17] = system: IGROV1 ovarian
[18] = system: HOP-92 NSCLC
[19] = system: U251 CNS
[20] = system: 786-0 renal
[21] = system: SN12C renal
[22] = system: RPMI-8226 leukemia
[23] = system: NCI-H23 lung
[24] = system: MDA-MB-231 breast
[25] = system: SK-MEL-2 melanoma
[26] = system: HCT-15 colon
[27] = system: SK-MEL-28 melanoma
[28] = system: MCF7 breast
[29] = system: BT-549 breast
[30] = system: OVCAR-5 ovarian
[31] = system: A498 renal
[32] = system: HCC-2998 colon
[33] = system: RXF 393 renal
[34] = system: TK-10 renal
[35] = system: UO-31 renal
[36] = system: HT29 colon
[37] = system: SF-268 CNS
[38] = system: PC-3 prostate
[39] = system: ACHN renal
[40] = system: NCI/ADR-RES ovarian
[41] = system: EKVX NSCLC
[42] = system: HS 578T breast
[43] = system: HL-60(TB) leukemia
[44] = system: CAKI-1 renal
[45] = system: K-562 leukemia
[46] = system: NCI-H226 lung
[47] = system: COLO 205 colon
[48] = system: MDA-MB-435
[49] = system: MALME-3M melanoma
[50] = system: HCT-116 colon
[51] = system: OVCAR-8 ovarian
[52] = system: A549 NSCLC
[53] = system: OVCAR-3 ovarian
[54] = system: MOLT-4 leukemia
[55] = system: HOP-62 NSCLC
[56] = system: M14 melanoma
[57] = system: NCI-H460 lung
[58] = system: UACC-62 melanoma

In the case of `O=C(/C=C/c1c(-c2ccccc2)[nH]c2ccccc12)S(=O)(=O)c1ccccc1`, the GI50 [1] is reported as 2420 nM, the TGI [1] is reported as 6.72 µM and the GI50 [2] is reported as 6.11 µM. The TGI [2] was greater than 100 µM, the GI50 [3] was 4.48 µM and the TGI [3] was greater than 100 µM. The GI50 [4] was greater than 100 µM, the TGI [4] was greater than 100 µM and the GI50 [5] was 2500 nM. For the same molecule, the TGI [5] was greater than 100 µM, the GI50 [6] was 35.7 µM and the TGI [6] was greater than 100 µM. It also gave a GI50 [7] of 2030 nM, a TGI [7] greater than 100 µM and a GI50 [8] of 818 nM. It also gave a TGI [8] greater than 100 µM, a GI50 [9] of 17.5 µM and a TGI [9] greater than 100 µM. The GI50 [10] was greater than 100000 nM, the TGI [10] was greater than 100 µM and the GI50 [11] was 23.5 µM. The TGI [11] was greater than 100 µM, the GI50 [12] was 4.38 µM and the TGI [12] was greater than 100 µM. The GI50 [13] was 7.54 µM, the TGI [13] was greater than 100 µM and the GI50 [14] was 3.96 µM. The TGI [14] was greater than 100 µM, the GI50 [15] was 5.1 µM and the TGI [15] was greater than 100 µM. The GI50 [16] was 5.41 µM, the TGI [16] was greater than 100 µM and the GI50 [17] was 24.3 µM. It also gave a TGI [17] greater than 100 µM, a GI50 [18] of 16.3 µM and a TGI [18] greater than 100 µM. For the same molecule, the GI50 [19] was 40.3 µM, the TGI [19] was greater than 100 µM and the GI50 [20] was 52.6 µM. It also gave a TGI [20] greater than 100 µM, a GI50 [21] greater than 100 µM and a TGI [21] greater than 100 µM. The GI50 [22] was 13.3 µM, the TGI [22] was greater than 100 µM and the GI50 [23] was 13.6 µM. It also gave a TGI [23] greater than 100 µM, a GI50 [24] of 16.6 µM and a TGI [24] greater than 100 µM. For the same molecule, the GI50 [25] was 78.6 µM, the TGI [25] was greater than 100 µM and the GI50 [26] was 6.42 µM. The TGI [26] was greater than 100 µM, the GI50 [27] was 27.1 µM and the TGI [27] was greater than 100 µM. It also gave a GI50 [28] of 3.09 µM, a TGI [28] greater than 100 µM and a GI50 [29] of 5.33 µM. The TGI [29] was greater than 100 µM, the GI50 [30] was greater than 100 µM and the TGI [30] was greater than 100 µM. It also gave a GI50 [31] of 2.2 µM, a TGI [31] of 87.8 µM and a GI50 [32] of 17.5 µM. For the same molecule, the TGI [32] was greater than 100 µM, the GI50 [33] was 9.34 µM and the TGI [33] was 67.1 µM. It also gave a GI50 [34] of 74 µM, a TGI [34] greater than 100 µM and a GI50 [35] greater than 100 µM. The TGI [35] was greater than 100 µM, the GI50 [36] was 3.76 µM and the TGI [36] was greater than 100 µM. For the same molecule, the GI50 [37] was 6.24 µM, the TGI [37] was greater than 100 µM and the GI50 [38] was 8.15 µM. For the same molecule, the TGI [38] was greater than 100 µM, the GI50 [39] was 39.8 µM and the TGI [39] was greater than 100 µM. For the same molecule, the GI50 [40] was 3.19 µM, the TGI [40] was 53.6 µM and the GI50 [41] was 4.37 µM. The TGI [41] was greater than 100 µM, the GI50 [42] was 10.1 µM and the TGI [42] was greater than 100 µM. It also gave a GI50 [43] of 5.6 µM, a TGI [43] of 98.7 µM and a GI50 [44] of 6.42 µM. For the same molecule, the TGI [44] was greater than 100 µM, the GI50 [45] was 3700 nM and the TGI [45] was greater than 100 µM. It also gave a GI50 [46] greater than 100 µM, a TGI [46] greater than 100 µM and a GI50 [47] of 6 µM. The TGI [47] was greater than 100 µM, the GI50 [48] was 1730 nM and the TGI [48] was 5.07 µM. It also gave a GI50 [49] of 8.11 µM, a TGI [49] greater than 100 µM and a GI50 [50] of 4.81 µM. For the same molecule, the TGI [50] was greater than 100 µM, the GI50 [51] was 53.6 µM and the TGI [51] was greater than 100 µM. It also gave a GI50 [52] of 24.9 µM, a TGI [52] greater than 100 µM and a GI50 [53] of 4.23 µM. The TGI [53] was greater than 100 µM, the GI50 [54] was 4.78 µM and the TGI [54] was greater than 100 µM. It also gave a GI50 [55] of 29.9 µM, a TGI [55] greater than 100 µM and a GI50 [56] of 5.86 µM. The TGI [56] was greater than 100 µM, the GI50 [57] was 3700 nM and the TGI [57] was greater than 100 µM.
For `Cc1ccc(N(CC(=O)Nc2ccc(S(=O)(=O)NC3CCN(C)CC3)cc2)S(=O)(=O)c2ccc(Cl)cc2)cc1`, the GI50 [1] was 2330 nM, the TGI [1] was 7.46 µM and the GI50 [2] was 2.24 µM. It also gave a TGI [2] of 4.62 µM, a GI50 [3] of 5.13 µM and a TGI [3] of 19.7 µM. The GI50 [5] was 2030 nM, the TGI [5] was 4.47 µM and the GI50 [6] was 4.27 µM. The TGI [6] was 21.5 µM, the GI50 [7] was 2850 nM and the TGI [7] was 8.25 µM. For the same molecule, the GI50 [8] was 2120 nM, the TGI [8] was 5.49 µM and the GI50 [9] was 1.85 µM. For the same molecule, the TGI [9] was 3.52 µM, the GI50 [10] was 1890 nM and the TGI [10] was 3.76 µM. It also gave a GI50 [11] of 5.45 µM, a TGI [11] of 17.8 µM and a GI50 [12] of 1.83 µM. It also gave a TGI [12] of 3.29 µM, a GI50 [13] of 3.27 µM and a TGI [13] of 11.2 µM. For the same molecule, the GI50 [14] was 2.95 µM, the TGI [14] was 15.7 µM and the GI50 [15] was 1.84 µM. The TGI [15] was 3.61 µM, the GI50 [16] was 2.94 µM and the TGI [16] was 11.1 µM. It also gave a GI50 [18] of 1.86 µM, a TGI [18] of 8.64 µM and a GI50 [19] of 2.35 µM. For the same molecule, the TGI [19] was 5.83 µM, the GI50 [20] was 2.08 µM and the TGI [20] was 5.23 µM. For the same molecule, the GI50 [21] was 3.05 µM, the TGI [21] was 13.1 µM and the GI50 [22] was 2.71 µM. The TGI [22] was 7.89 µM, the GI50 [23] was 10.1 µM and the TGI [23] was 24.5 µM. For the same molecule, the GI50 [24] was 1.87 µM, the TGI [24] was 4.68 µM and the GI50 [25] was 2.15 µM. The TGI [25] was 4.86 µM, the GI50 [26] was 11.9 µM and the TGI [26] was 27.5 µM. It also gave a GI50 [27] of 1.95 µM, a TGI [27] of 4.18 µM and a GI50 [28] of 3.02 µM. It also gave a TGI [28] of 13.1 µM, a GI50 [29] of 12.6 µM and a TGI [29] of 27.8 µM. The GI50 [30] was 4.04 µM, the TGI [30] was 17.1 µM and the GI50 [31] was 13.4 µM. For the same molecule, the TGI [31] was 28.8 µM, the GI50 [32] was 2.1 µM and the TGI [32] was 5.25 µM. For the same molecule, the GI50 [33] was 1.65 µM, the TGI [33] was 3.84 µM and the GI50 [34] was 13.7 µM. It also gave a TGI [34] of 27 µM, a GI50 [35] of 14.7 µM and a TGI [35] of 30.3 µM. It also gave a GI50 [36] of 2.88 µM, a TGI [36] of 7.5 µM and a GI50 [37] of 2.67 µM. For the same molecule, the TGI [37] was 8.26 µM, the GI50 [38] was 2.86 µM and the TGI [38] was 10.7 µM. The GI50 [39] was 12 µM, the TGI [39] was 27.6 µM and the GI50 [40] was 16.8 µM. For the same molecule, the TGI [40] was 35.5 µM, the GI50 [41] was 5.09 µM and the TGI [41] was 19.8 µM. The GI50 [42] was 2.27 µM, the TGI [42] was 6.74 µM and the GI50 [43] was 2.21 µM. The TGI [43] was 4.93 µM, the GI50 [44] was 14.7 µM and the TGI [44] was 28.4 µM. It also gave a GI50 [58] of 1740 nM, a TGI [58] of 3.59 µM and a GI50 [45] of 2230 nM. It also gave a TGI [45] of 5 µM, a GI50 [46] of 5.37 µM and a TGI [46] of 23.4 µM. It also gave a GI50 [47] of 1.89 µM, a TGI [47] of 3.89 µM and a GI50 [48] of 1860 nM. The TGI [48] was 3.57 µM, the GI50 [49] was 1.72 µM and the TGI [49] was 3.65 µM. For the same molecule, the GI50 [50] was 1.69 µM, the TGI [50] was 3.2 µM and the GI50 [51] was 3.61 µM. It also gave a TGI [51] of 12.1 µM, a GI50 [52] of 5 µM and a TGI [52] of 16.3 µM. For the same molecule, the GI50 [53] was 2.99 µM, the TGI [53] was 8.77 µM and the GI50 [54] was 2.97 µM. The TGI [54] was 10.1 µM, the GI50 [55] was 3.96 µM and the TGI [55] was 14.2 µM. It also gave a GI50 [56] of 1.79 µM, a TGI [56] of 3.42 µM and a GI50 [57] of 2020 nM. The TGI [57] was 4 µM.
